According to publication PMC6226472, “Cardol triene inhibits dengue infectivity by targeting kl loops and preventing envelope fusion” (Scientific Reports, 2018):

Legend:
[1] = test system: DENV3 (16562); assay: Efficacy (EC50) in infected Vero cells; assay type: cell-based; settings: Dengue virus
[2] = test system: DENV4 (c0036); assay: Efficacy (EC50) in infected Vero cells; assay type: cell-based; settings: Dengue virus
[3] = test system: ZIKV (sv0010/15); assay: Efficacy (EC50) in infected Vero cells; assay type: cell-based, Zika virus
[4] = test system: dengue virus serotype 1–4; assay: Pan-dengue inhibition (EC50s over serotypes); assay type: cell-based; settings: DENV1, read-out: EC50s, pan-dengue inhibition
[5] = test system: DENV2; assay: Attachment inhibition study; assay type: cell-based, Dengue virus
Description: Since dengue envelope protein was the key factor to receptor-binding, endocytosis, and fusion, we asked the question whether the compound would mainly neutralize the virion, inhibit the receptor binding, or inhibit endosomal fusion. Cardol triene at 10 µM was then co-incubated with DENV2 before, during, and after infection to Vero cells (Fig. 6A). […] Therefore, the major target was most likely at a pH-dependent endosomal fusion. […] However, the major post-infection inhibition required further investigations.
Vero (5 × 10^4) cells were seeded into 24-well plates as previously described. DENV2 (M.O.I. of 1) was diluted in ice-cold MEM with 1% fetal bovine serum[42] and was allowed to adsorb on the cells for 1 h with continuous rocking. Cardol triene (10 µM) was prepared in DMSO and was mixed with DENV2 (M.O.I. of 1) before adsorption for 1 h (pre-attachment). Cardol triene (10 µM) was also mixed with DENV2 (M.O.I. of 1) and immediately applied to the cells (co-attachment). Last, cardol triene was added to the cells after 1 h DENV2 adsorption (post-attachment). The experiments were incubated for 2 days at 37 °C. Intracellular viral RNA was determined from cell lysate using RT-qPCR and infectious virion was determined using plaque titration of the supernatant. DMSO was added to the experiment as a no-inhibition control. Means and standard error of the means (SEM) of three independent experiments were noted.

[6] = test system: ZIKV; assay: Fusion inhibition study in C6/36 cells; assay type: cell-based, Zika virus; settings: 10 µM, C6/36, M.O.I. of 1, 48 h, MES
Description: Fusion inhibition study[25]–[27] of DENV and ZIKV were used to confirm the findings. Briefly, cardol triene at 10 µM was added to DENV2 or ZIKV (Fig. 6C-D) infected C6/36 cells at the M.O.I. of 1 for 48 h before inducing acidic condition by MES. The 4G2 antibody was used as a positive control inhibiting both DENV2 and ZIKV fusion. […] Therefore, we concluded that one of the targets of cardol triene, and other CNSL-derived phenolic lipids, was the kl loops of DENV E protein, thus preventing the conformational change of DENV dimer to trimer that was required to initiate pH-dependent fusion.
C6/36 (2 × 10^5) cells were seeded into 24-well plates before infection with DENV2 and ZIKV (M.O.I. of 1) as described. Cardol triene at 10 µM were introduced to the DENV2 and ZIKV infected cells during and after infection. […] Cells were incubate at 28 °C for 2 days before addition of 0.5 M 2-(N-morpholino) ethanesulfonic acid (MES) (pH 5.0) (Sigma Aldrich, St Louis, USA). Moreover, cells from selected wells subsequently underwent DAPI staining. Cell-cell fusion was observed under brightfield and fluorescence using an Eclipse TS100 Inverted Routine Microscope (Nikon, New York, USA).

[7] = test system: BHK-21/DENV2 replicon cells; assay: Replicon inhibition study, RT-qPCR of DENV2 NS1; assay type: cell-based, Dengue virus; settings: 72 h
Description: (§1) We analyzed the replication inhibition using BHK-21/DENV2 replicon cells stably expressed the non-structural proteins. Cardol triene at 10 µM and 20 µM were added to the replicon cells for 72 h and the replication inhibition was accessed by RT-qPCR of DENV2 NS1. Ribavirin, a known inhibitor of flaviviral replication, was used as a positive inhibition control. […] Replicon cell viability under cardol triene treatment was also analyzed using an MTS assay. […] Therefore, we concluded that cardol triene inhibited DENV RNA replicon replication, potentially in dose-dependent manner.
BHK-21 (5 × 10^4) cells expressing DENV-2 replicon (BHK-21/DENV2)[44] were seeded as previously described. Cardol triene at 10 µM and 20 µM, DMSO, and ribavirin (TargetMol, USA) were added to the replicon cells and incubated at 37 °C for 3 days. Cells lysates were collected and viral RNA was quantified by RT-qPCR as previously described. Data were reported as percent inhibition compared with ribavirin. Three biological replicates were performed and results were means and SEM of all replicates.

[8] = test system: BHK-21/DENV2 replicon cells; assay: Replicon cell viability, MTS assay; assay type: cell-based; settings: 10 µM and 20 µM, 72 h
Description: as §1
Figure 7 Replicon inhibition study. (A) DENV2/BHK-21 replicon (5 × 10^4 cells) were treated with cardol triene or ribavirin for 72 h. Percent inhibition was calculated from RT-qPCR of cell lysate. (B) Percent DENV2/BHK-21 replicon cell viability at 72 h under 10 and 20 µM cardol triene. Error bars represented standard error of means (SEM) from three independent experiments.

`C=CC/C=C/C/C=C/CCCCCCCc1cc(O)cc(O)c1` [Cardol triene, 5-[8(Z), 11(Z), 14-pentadecatrienyl]resorcinol] was tested, and the EC50 [1] was 8.98 ± 1.77 µM, the EC50 [2] was 8.21 ± 0.34 µM and the Zika virus inhibition [3] was “did not inhibit”. For the same compound, the EC50 [4] was 5.35 to 8.89 µM, the “inhibition of intracellular RNA” value ([5]; 10 µM, post-infection, RT-qPCR) was 87.00 ± 6.43% and the “inhibition of infectious virions” value ([5]; 10 µM, pre-incubation and co-infection) was “moderate inhibition”. The inhibition at 10 µM ([5]; Dengue virus, DENV2, post-infection, plaque titration, read-out: inhibition of infectious virion) was 91.7 ± 4.53%, the “ZIKV pH-dependent cell fusion” value [6] was “ZIKV-induced fused cells and nuclei were present” and the “DENV2 RNA inhibition” value ([7]; 10 µM) was 76.60 ± 7.59%. For the same compound, the “DENV2 RNA inhibition” value ([7]; 20 µM) was 89.44 ± 4.02% and the replicon cell viability [8] was “did not have effect on cell viability”.
